Assays:
[1] = tested on: Ba/F3 EGFR Del19/T790M/C797S cells; assay: Cell proliferation inhibition assay (Cell Titer-Glo), Ba/F3 EGFR Del19/T790M/C797S; type: cell-based; conditions: 72 hours, read-out: Ba/F3 EGFR Del19_T790M_C797S IC50
Excerpt: (§1) Test Example 2: Cell Proliferation Inhibition Assay
(§2) Experimental objective: The objective of this test example is to test the inhibitory activity of compounds on the proliferation of different EGFR C797S drug-resistant mutant cell lines Ba/F3 EGFR Del19/T790M/C797S, Ba/F3 EGFR L858R/T790M/C797S, and Ba/F3 EGFR Del19/C797S.
(§3) • Ba/F3 EGFR Del19/T790M/C797S cells were purchased from KYinno Biotechnology Co., Ltd.; • Ba/F3 EGFR Del19/C797S cells were purchased from CoBioer Biosciences Co., Ltd.; • Ba/F3 EGFR L858R/T790M/C797S cells were purchased from CoBioer Biosciences Co., Ltd.; • Cell Titer-Glo was purchased from Promega, with a catalog number of G7573; • RPMI 1640 was purchased from Gibco, with a catalog number of 22400089; • FBS was purchased from Gibco, with a catalog number of 10091148; • cell culture plates were purchased from Corning, with a catalog number of 3610.
(§4) The inhibitory activity of the compound on the proliferation of different EGFR C797S drug-resistant mutant cell lines was detected using the Cell Titer-Glo method. The different cell lines were cultured in RPMI 1640 complete culture medium containing 10% FBS under conditions of 37° C. and 5% CO2, the cells were collected by centrifugation when growing to a certain density, and adjusted to appropriate cell density after counting, the cells were spread on a white 96-well plate at 90 μL/well, and cultured in a 37° C., 5% CO2 incubator overnight, prepared compound solutions of different concentrations were added at 10 μL/well, corresponding solvent controls were set, and all wells were cultured in a 37° C., 5% CO2 incubator for 72 hours, 50 μL of CellTiter-Glo solution was added to each well, shook and mixed evenly, and incubated in the dark for 10 minutes, and a BioTek Synergy H1 microplate reader was used for reading.
(§5) The luminescence signal value was used to calculate the inhibition rate. Graphpad Prism software was used to fit the concentration and inhibition rate to a nonlinear regression curve, so as to obtain the IC50 value, as shown in Tables 3 and 4 below for details.

[2] = tested on: Ba/F3 EGFR Del19/C797S cells; assay: Cell proliferation inhibition assay (Cell Titer-Glo), Ba/F3 EGFR Del19/C797S; type: cell-based; conditions: 72 hours, read-out: Ba/F3 EGFR Del19_C797S IC50
Excerpt: as §1, §2, §3, §4, §5

[3] = biological target: EGFR del19/T790M/C797S mutant kinase (Homo sapiens, UniProt P00533, C797S/DEL746-750/T790M); assay: HTRF kinase assay, EGFR del19/T790M/C797S mutant kinase; type: biochemical; conditions: 120 minutes at room temperature
Excerpt: Test Example 1. Determination of the Inhibitory Effect of the Compounds of the Present Invention on the Activity of EGFR del19/T790M/C797S and EGFR L858R/T790M/C797S Mutant Kinases
Experimental objective: The objective of this test example is to test the inhibitory activity of the compounds on the activity of EGFR del19/T790M/C797S and EGFR L858R/T790M/C797S mutant kinases.
Experimental method: This experiment used Cisbio's HTRF kinase assay method (Cisbio #62TK0PEB), wherein a catalytic reaction occurred between the substrate polypeptide TK and ATP in the presence of the tyrosine kinase with EGFR del19/T790M/C797S or EGFR L858R/T790M/C797S mutation, the substance was phosphorylated, and the activity of the kinase was characterized by measuring the content of the phosphorylated substrate generated during the reaction, and the half inhibitory concentration IC50 of the compound on the activity of EGFR del19/T790M/C797S or EGFR L858R/T790M/C797S mutant kinase was obtained.
Specific Experimental Operations were as Follows: • the kinase reaction was carried out in a white 384-well plate (Perkin Elmer #6008280), and 1-5 μL of compounds of different concentrations which were diluted with 1% DMSO-containing ddH2O were added; to the positive control wells were added 1-5 μL of 1% DMSO-containing ddH2O, followed by 1-5 μL of 0.5-5 nM 4×EGFR del19/T790M/C797S or EGFR L858R/T790M/C797S mutant kinase solution which was diluted with Dilution buffer (5× kinase buffer, MgCl2 6.65 Mm, MnCl2 1.33 mM, DTT 1.33 mM); to the negative control wells were added 1-5 μL of Dilution buffer; to all the wells were added 1-5 μL of 4 μM 4× substrate TK solution which was prepared with 10× Dilution buffer, and finally added 1-5 μL of 24 μM 4×ATP solution which was diluted with Dilution buffer to start the reaction; after reacting at room temperature for 120 minutes, 10 μL of detection solution (TK antibody 16 nM, XL665 0.5 μM) was added to each well, same was reacted at room temperature in the dark for 20 minutes, and then the […] was detected using a BioTek Synergy H1 microplate reader.
The percent inhibition data for compound-treated wells was calculated according to the positive control wells (DMSO control wells) and negative control wells (no kinase added) on the plate {% inhibition rate=100−[(test compound value−negative control value)]/(positive control value−negative control value)×100}. GraphPad prism was used to fit different concentrations and corresponding percent inhibition rate data to a 4-parameter nonlinear logistic equation to calculate IC50 values.

Chain of EGFR del19/T790M/C797S mutant kinase (P00533 with tags, fused parts or gaps C797S/DEL746-750/T790M limits assumed): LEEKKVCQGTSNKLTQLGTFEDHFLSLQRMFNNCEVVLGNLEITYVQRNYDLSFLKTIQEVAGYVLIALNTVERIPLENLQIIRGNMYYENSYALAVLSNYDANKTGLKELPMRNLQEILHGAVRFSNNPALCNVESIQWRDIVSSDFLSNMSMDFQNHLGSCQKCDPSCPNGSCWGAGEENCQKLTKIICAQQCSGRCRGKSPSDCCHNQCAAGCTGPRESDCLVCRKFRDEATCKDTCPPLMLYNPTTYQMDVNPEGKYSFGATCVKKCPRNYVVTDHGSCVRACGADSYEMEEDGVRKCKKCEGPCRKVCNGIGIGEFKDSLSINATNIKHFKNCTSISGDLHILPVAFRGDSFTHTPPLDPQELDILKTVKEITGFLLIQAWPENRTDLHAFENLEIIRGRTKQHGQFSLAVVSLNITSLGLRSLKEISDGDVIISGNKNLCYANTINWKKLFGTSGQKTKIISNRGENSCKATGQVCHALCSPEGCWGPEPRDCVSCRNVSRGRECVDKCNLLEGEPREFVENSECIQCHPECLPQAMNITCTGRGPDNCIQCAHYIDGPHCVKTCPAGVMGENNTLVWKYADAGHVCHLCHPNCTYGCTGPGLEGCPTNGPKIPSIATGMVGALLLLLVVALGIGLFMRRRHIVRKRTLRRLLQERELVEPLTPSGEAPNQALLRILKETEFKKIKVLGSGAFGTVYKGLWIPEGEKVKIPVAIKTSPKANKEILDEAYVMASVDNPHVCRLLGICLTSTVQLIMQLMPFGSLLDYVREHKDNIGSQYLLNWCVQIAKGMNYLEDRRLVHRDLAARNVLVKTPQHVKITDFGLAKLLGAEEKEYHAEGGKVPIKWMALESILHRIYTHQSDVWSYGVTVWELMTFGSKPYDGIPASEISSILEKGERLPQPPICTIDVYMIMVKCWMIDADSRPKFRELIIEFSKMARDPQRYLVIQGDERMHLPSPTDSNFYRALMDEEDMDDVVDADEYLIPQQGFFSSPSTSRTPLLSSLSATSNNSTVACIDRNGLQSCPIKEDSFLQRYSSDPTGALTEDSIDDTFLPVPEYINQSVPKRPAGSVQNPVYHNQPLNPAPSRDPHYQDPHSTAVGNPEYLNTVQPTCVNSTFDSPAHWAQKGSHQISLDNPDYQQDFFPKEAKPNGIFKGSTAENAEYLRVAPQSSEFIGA

Row | Compound | IC50 [1] [nM] | IC50 [2] [nM] | IC50 [3] [nM]
1 | CC(C)c1ccc(N2C[C@H](N3CCOC3=O)[C@H]2C)c2cnc(Nc3ccnc(-c4cn(C)nc4Cl)n3)cc12 [Example 74, 3-((2R,3S)-1-(3-((2-(3-chloro-1-methyl-1H-pyrazol-4-yl)pyrimidin-4-yl)amino)-5-isopropylisoquinolin-8-yl)-2-methylazetidin-3-yl)oxazolidin-2-one] | 14 | 14 | –
2 | CC(C)c1ccc(N2C[C@H](CS(C)(=O)=O)[C@H]2C)c2cnc(Nc3ccnc(-c4cn(C5CCOCC5)nc4Cl)n3)cc12 [Example 78, N-(2-(3-chloro-1-(tetrahydro-2H-pyran-4-yl)-1H-pyrazol-4-yl)pyrimidin-4-yl)-5-isopropyl-8-((2R,3S)-2-methyl-3-((methanesulfonyl)methyl)azetidin-1-yl)isoquinolin-3-amine] | 12 | 27 | –
3 | COCCn1cc(-c2nccc(Nc3cc4c(C(C)C)ccc(N5C[C@H](CS(C)(=O)=O)[C@H]5C)c4cn3)n2)c(Cl)n1 [Example 73, N-(2-(3-chloro-1-(2-methoxyethyl)-1H-pyrazol-4-yl)pyrimidin-4-yl)-5-isopropyl-8-((2R,3S)-2-methyl-3-((methanesulfonyl)methyl)azetidin-1-yl)isoquinolin-3-amine] | 11 | 8.5 | –
4 | CC(C)c1ccc(N2C[C@H](CS(C)(=O)=O)[C@H]2C)c2cnc(Nc3ccnc(-c4cn(C5CC5)nc4Cl)n3)cc12 [Example 70, N-(2-(3-chloro-1-cyclopropyl-1H-pyrazol-4-yl)pyrimidin-4-yl)-5-isopropyl-8-((2R,3S)-2-methyl-3-((methanesulfonyl)methyl)azetidin-1-yl)isoquinolin-3-amine] | 11 | 10 | –
5 | CC(C)c1ccc(N2C[C@H](CS(C)(=O)=O)[C@H]2C)c2cnc(Nc3ccnc(-c4cn(CCO)nc4Cl)n3)cc12 [Example 11, 2-(3-chloro-4-(4-((5-isopropyl-8-((2R,3S)-2-methyl-3-((methanesulfonyl)methyl)azabut-1-yl)isoquinolin-3-yl)amino)pyrimidin-2-yl)-1H-pyrazol-1-yl)ethanol] | 7.2 | 24 | –
6 | CC(C)c1ccc(N2C[C@H](CS(C)(=O)=O)[C@H]2C)c2cnc(Nc3ccnc(-c4cnn(CC5(CC#N)CC5)c4)n3)cc12 [Example 18, 2-(1-((4-(4-((5-isopropyl-8-((2R,3S)-2-methyl-3-((methanesulfonyl)methyl)azetidin-1-yl)isoquinolin-3-yl)amino)pyrimidin-2-yl)-1H-pyrazol-1-yl)methyl)cyclopropyl)acetonitrile] | – | – | 9.1
7 | Cc1nn(C)c(F)c1-c1nccc(Nc2cc3c(C(C)C)ccc(N4C[C@H](CS(C)(=O)=O)[C@H]4C)c3cn2)n1 [Example 77, N-(2-(5-fluoro-1,3-dimethyl-1H-pyrazol-4-yl)pyrimidin-4-yl)-5-isopropyl-8-((2R,3S)-2-methyl-3-((methanesulfonyl)methyl)azetidin-1-yl)isoquinolin-3-amine] | – | 12 | –
8 | CC(C)c1ccc(N2C[C@H](CS(C)(=O)=O)[C@H]2C)c2cnc(Nc3ccnc(-c4cn(CCO)nc4C(F)(F)F)n3)cc12 [Example 59, 2-(4-(4-((5-isopropyl-8-((2R,3S)-2-methyl-3-((methanesulfonyl)methyl)azetidin-1-yl)isoquinolin-3-yl)amino)pyrimidin-2-yl)-3-(trifluoromethyl)-1H-pyrazol-1-yl)ethan-1-ol] | – | 62 | –
9 | CC(C)c1ccc(N2C[C@H](CS(C)(=O)=O)[C@H]2C)c2cnc(Nc3ccnc(-c4cnn(C(F)F)c4)n3)cc12 [Example 25, N-(2-(1-(difluoromethyl)-1H-pyrazol-4-yl)pyrimidin-4-yl)-5-isopropyl-8-((2R,3S)-2-methyl-3-((methanesulfonyl)methyl)azetidin-1-yl)isoquinolin-3-amine] | 14 | 54 | –
10 | C=CCn1cc(-c2nccc(Nc3cc4c(C(C)C)ccc(N5C[C@H](CS(C)(=O)=O)[C@H]5C)c4cn3)n2)cn1 [Example 51, N-(2-(1-allyl-1H-pyrazol-4-yl)pyrimidin-4-yl)-5-isopropyl-8-((2R,3S)-2-methyl-3-((methanesulfonyl)methyl)azetidin-1-yl)isoquinolin-3-amine] | – | 41 | –
11 | CC(C)c1ccc(N2C[C@H](CS(C)(=O)=O)[C@H]2C)c2cnc(Nc3ccnc(-c4cn(CCN)nc4Cl)n3)cc12 [Example 71, N-(2-(1-(2-aminoethyl)-3-chloro-1H-pyrazol-4-yl)pyrimidin-4-yl)-5-isopropyl-8-((2R,3S)-2-methyl-3-((methanesulfonyl)methyl)azetidin-1-yl)isoquinolin-3-amine] | – | 96 | –
12 | Cc1nn(C)cc1-c1nccc(Nc2cc3c(C(C)C)ccc(N4C[C@H](CS(=O)(=O)N(C)C)[C@H]4C)c3cn2)n1 [Example 61, 1-((2R,3S)-1-(3-((2-(1,3-dimethyl-1H-pyrazol-4-yl)pyrimidin-4-yl)amino)-5-isopropylisoquinolin-8-yl)-2-methylazetidin-3-yl)-N,N-dimethyl methanesulfonamide] | 9.1 | 24 | –
13 | CC(O)Cn1cc(-c2nccc(Nc3cc4c(C(C)C)ccc(N5C[C@H](CS(C)(=O)=O)[C@H]5C)c4cn3)n2)c(Cl)n1 (stereo partly drawn) [Example 80, 1-(3-chloro-4-(4-((5-isopropyl-8-((2R,3S)-2-methyl-3-((methanesulfonyl)methyl)azetidin-1-yl)isoquinolin-3-yl)amino)pyrimidin-2-yl)-1H-pyrazol-1-yl)propan-2-ol] | 10 | 17 | –
14 | CC(C)c1ccc(N2C[C@H](CS(C)(=O)=O)[C@H]2C)c2cnc(Nc3ccnc(-c4cnn(CCO)c4)n3)cc12 [Example 48, 2-(4-(4-((5-isopropyl-8-((2R,3S)-2-methyl-3-((methanesulfonyl)methyl)azetidin-1-yl)isoquinolin-3-yl)amino)pyrimidin-2-yl)-1H-pyrazol-1-yl)ethan-1-ol] | – | 85 | 4.2
15 | CC(C)c1ccc(N2C[C@H](CS(C)(=O)=O)[C@H]2C)c2cnc(Nc3ccnc(-c4cncs4)n3)cc12 [Example 54, 5-isopropyl-8-((2R,3S)-2-methyl-3-((methanesulfonyl)methyl)azetidin-1-yl)-N-(2-(thiazol-5-yl)pyrimidin-4-yl)isoquinolin-3-amine] | – | 32 | 7.5
16 | CC(C)c1ccc(C2CC(CS(C)(=O)=O)C2)c2cnc(Nc3ccnc(-c4cn(C)nc4Cl)n3)cc12 (centres unmarked) [Example 63, N-(2-(3-chloro-1-methyl-1H-pyrazol-4-yl)pyrimidin-4-yl)-5-isopropyl-8-(3-((methanesulfonyl)methyl)cyclobutyl)isoquinolin-3-amine] | – | 30 | –
